≈ marks a conversion by molar mass, not a printed value. Where “and” joins values, the source holds several entries; their conditions need not be identical. Equal values may be shown once. Read-outs that look alike come from different tables or passages of the source.
Experiments:
[1] = test system: SARS-CoV-2, isolate USA-WA1/2020; test: microbe, parasite or virus in culture; type: cell-based; settings: HeLa-ACE2 SARS-CoV-2 antiviral effect without P-gp inhibitor; for perc_max_measured: maximum measured response of dose series; for perc_min_measured: minimum measured response of dose series; for EC50: read-out: ec50; for EC90: read-out: ec90
[2] = Hepatic microsomal stability, HLM; type: in vitro ADME, human; settings: In vitro human liver microsomal stability; for perc_remaining_no_cofactor: no cofactor
[3] = Hepatic microsomal stability, MLM; type: in vitro ADME; settings: In vitro mouse liver microsomal stability; for perc_remaining_no_cofactor: no cofactor
[4] = test system: HeLa-ACE2 cells; settings: for perc_max_measured: highest measured response of the dose series; for perc_min_measured: lowest measured response of the dose series
[5] = LogD; settings: pH 7.4; In vitro LogD
[6] = in vitro; settings: human, hela-ace2 cells, 50.0
[7] = In vitro kinetic solubility; settings: In vitro kinetic solubility, ph 7.4
[8] = Permeability Papp (AB) MDR1/MDCKII; settings: for papp_a_to_b_mean / perc_recovery_a_to_b_mean / papp_b_to_a_mean / efflux_ratio / perc_recovery_b_to_a_mean: In vitro MDR1-MDCKII permeability; for papp_a_to_b_mean: A to B; for perc_recovery_a_to_b_mean / perc_recovery_a_to_b_inhibitor_mean: recovery A to B; for papp_b_to_a_mean: B to A; for perc_recovery_b_to_a_mean / perc_recovery_b_to_a_inhibitor_mean: recovery B to A; for perc_recovery_a_to_b_inhibitor_mean / perc_recovery_b_to_a_inhibitor_mean: MDR1-MDCKII
[9] = protocol HeLa-ACE2 cytotoxicity

Row | SMILES | perc_max_measured [1] [%] | perc_min_measured [1] [%] | EC50 [1] [µM] | EC90 [1] [µM] | clint [2] [µL/min/mg] | perc_remaining [2] [%] | t_half [2] [min] | perc_remaining_no_cofactor [2] [%] | clint [3] [µL/min/mg] | perc_remaining [3] [%] | t_half [3] [min] | perc_remaining_no_cofactor [3] [%] | CC50 ([4]; HeLa-ACE2 cytotoxicity) [µM] | cc10 ([4]; HeLa-ACE2 cytotoxicity) [µM] | perc_max_measured ([4]; HeLa-ACE2 cytotoxicity) [%] | perc_min_measured ([4]; HeLa-ACE2 cytotoxicity) [%] | logd [5] | CC50 at 24 h [6] [µM] | solubility_mean [7] [µM] | papp_a_to_b_mean ([8]; mean) [×10⁻⁶ cm/s] | also measured
1 | CNCc1cc(-c2cc3c(N[C@H](c4ccc5c(c4)S(=O)(=O)CCC5)C(C)C)ncnc3[nH]2)co1 (single isomer, unassigned) [ASAP-0011169] | 94.818 | 27.713 | 11.1 | > 20 | 67.0 | 33.0 | 25.1 | 98.0 | 40.0 | 51.0 | 41.8 | 96.0 | > 20 | > 20.0 | 96.832 | 86.562 | 2.1 | > 20 | 358 (≈ 172 µg/mL) | 0.483 | perc_recovery_a_to_b_mean ([8]; mean): 63.8%
2 | CNC(=O)c1cc2c(N[C@@H](c3ccc4c(c3)S(=O)(=O)CCC4)C(C)C)ncnc2[nH]1 (single isomer, unassigned) [ASAP-0012346] | 104.869 | 90.681 | > 20 | > 20 | 682.0 | 0.0 | 2.4 | 94.0 | 23.0 | 69.0 | 71.6 | 97.0 |  |  |  |  | 2.4 | > 20 | 397 (≈ 170 µg/mL) |  | CC50 [4, 9]: > 20 µM; cc10 [4, 9]: > 20.0 µM; perc_max_measured [4, 9]: 108.34%; perc_min_measured [4, 9]: 94.319%; papp_b_to_a_mean ([8]; no inhibitor): 0.72 ×10⁻⁶ cm/s; efflux_ratio ([8]; no inhibitor): 21.1; perc_recovery_a_to_b_mean ([8]; no inhibitor): 74.6% and 66.3%; perc_recovery_b_to_a_mean ([8]; no inhibitor): 68.8%; perc_recovery_a_to_b_inhibitor_mean ([8]; with inhibitor Verapamil): 98.1%; perc_recovery_b_to_a_inhibitor_mean ([8]; with inhibitor Verapamil): 86.6%
3 | CC(C)[C@@H](Nc1ncnc2[nH]c(-c3cnn(C)c3C#N)cc12)c1ccc2c(n1)NC(=O)CO2 (single isomer, unassigned) [ASAP-0011180] | 122.922 | 8.802 | 2.46 | 5.57 | 51.0 | 43.0 | 32.6 | 98.0 | 189.0 | 5.0 | 8.8 | 92.0 | > 20 | > 20.0 | 104.887 | 81.763 | 3.7 | > 20 | 28 (≈ 12.4 µg/mL) | 9.64 | perc_recovery_a_to_b_mean ([8]; mean): 84.8%
4 | CC(C)[C@@H](Nc1ncnc2[nH]c(-c3ccc4cncn4c3)cc12)c1ccc2c(c1)S(=O)(=O)CCC2 [ASAP-0011215] | 92.609 | 28.375 | 7.12 | > 20 | 210.0 | 4.0 | 8.0 | 97.0 | 170.0 | 6.0 | 9.8 | 87.0 | > 20 | > 20.0 | 108.268 | 81.968 | 4.0 | > 20 | 14 (≈ 6.81 µg/mL) |  | papp_a_to_b_mean ([8]; no inhibitor): 0.56 ×10⁻⁶ cm/s; perc_recovery_a_to_b_mean ([8]; no inhibitor): 70.8%
5 | CC(C)[C@H](Nc1ncnc2[nH]c(-c3cnn(C)c3C#N)cc12)c1ccc2c(c1)S(=O)(=O)CCC2 (single isomer, unassigned) [ASAP-0011144] | 129.006 | 5.734 | 6.21 | 7.19 | 935.0 | 0.0 | 1.8 | 101.0 | 311.0 | 1.0 | 5.4 | 90.0 | > 20 | > 20.0 | 100.779 | 87.504 | 3.3 | > 20 | 22 (≈ 10.5 µg/mL) | 4.33 | papp_a_to_b_mean ([8]; no inhibitor): 0.109 ×10⁻⁶ cm/s and 0.101 ×10⁻⁶ cm/s; papp_b_to_a_mean ([8]; no inhibitor): 6.0 ×10⁻⁶ cm/s and 7.2 ×10⁻⁶ cm/s; efflux_ratio ([8]; no inhibitor): 54.9 and 71.8; perc_recovery_a_to_b_mean ([8]; mean): 71.4%; perc_recovery_a_to_b_mean ([8]; no inhibitor): 95.4% and 83.3%; perc_recovery_b_to_a_mean ([8]; no inhibitor): 82.4% and 102.0%; perc_recovery_a_to_b_inhibitor_mean ([8]; with inhibitor Cyclosporin A): 78.3%; perc_recovery_a_to_b_inhibitor_mean ([8]; with inhibitor Verapamil): 84.6%; perc_recovery_b_to_a_inhibitor_mean ([8]; with inhibitor Cyclosporin A): 76.3%; perc_recovery_b_to_a_inhibitor_mean ([8]; with inhibitor Verapamil): 95.9%
